The source of these data is ChEMBL document CHEMBL4312001, “Combined therapy with Benznidazole and repurposed drugs Clofazimine and Benidipine for chronic Chagas disease” (Eur J Med Chem, 2019).

Activity calls are given as the source filed them. No cut-off for these calls is given here.

Series [1] concerns Trypanosoma cruzi. The experiment in a line: Antitrypanosomal activity against Trypanosoma cruzi K98 bloodstream form infected in C3H/HeNk mouse assessed as reduction in parasite burden in skeletal muscle at 15 mg/kg/day, po administered via gavage for 30 consecutive days starting from 90 days post infection and measured at 180 days post infection in presence of benznidazole by qRT-PCR analysis. It is filed as functional, organism-based. On the technique in general: Quantitative PCR measures a nucleic acid by following its amplification.

The subject of series [2] is Trypanosoma cruzi. Description: Antitrypanosomal activity against Trypanosoma cruzi K98 bloodstream form infected in C3H/HeNk mouse assessed as adipocytes replacement in skeletal muscle by measuring number of adipocyte at 15 mg/kg/day, po administered via gavage for 30 consecutive days starting from 90 days post infection and measured at 180 days post infection in presence of benznidazole by hematoxylin and eosin staining based …. The class given is functional.

Series [3] relates to Trypanosoma cruzi. Description: Antitrypanosomal activity against Trypanosoma cruzi K98 bloodstream form infected in C3H/HeNk mouse assessed as change in QRS morphology at 15 mg/kg/day, po administered via gavage for 30 consecutive days starting from 90 days post infection and measured at 170 days post infection in presence of benznidazole by electrocardiographic analysis (reference value: 25 %). The class given is functional.

In series [4] the test system is Trypanosoma cruzi. Description: Antitrypanosomal activity against Trypanosoma cruzi K98 bloodstream form infected in C3H/HeNk mouse assessed as effect on PR interval at 15 mg/kg/day, po administered via gavage for 30 consecutive days starting from 90 days post infection and measured at 120 to 170 days post infection in presence of benznidazole by electrocardiographic analysis. It is filed as functional, organism-based.

The test system of series [5] is Trypanosoma cruzi. Description: Antitrypanosomal activity against Trypanosoma cruzi K98 bloodstream form infected in C3H/HeNk mouse assessed as effect on heart rate at 15 mg/kg/day, po administered via gavage for 30 consecutive days starting from 90 days post infection and measured at 120 to 170 days post infection in presence of benznidazole by electrocardiographic analysis. It is filed as functional, organism-based.

Series [6] has as its system Trypanosoma cruzi. Description: Antitrypanosomal activity against Trypanosoma cruzi K98 bloodstream form infected in C3H/HeNk mouse assessed as reduction in cardiac tissue inflammation at 15 mg/kg/day, po administered via gavage for 30 consecutive days starting from 90 days post infection and measured at 180 days post infection in presence of benznidazole by hematoxylin and eosin staining based assay. The class given is functional, organism-based.

Series [7] is described as follows: Toxicity in C3H/HeNk mouse infected with Trypanosoma cruzi K98 bloodstream form assessed as body weight gain at 15 mg/kg/day, po administered via gavage for 30 consecutive days starting from 90 days post infection measured up to 120 days post infection in presence of benznidazole. The class given is organism-based. Conditions: in vivo.
The subject of series [8] is Trypanosoma cruzi. The experiment in a line: Antitrypanosomal activity against Trypanosoma cruzi K98 bloodstream form infected in C3H/HeNk mouse assessed as effect on QT interval at 15 mg/kg/day, po administered via gavage for 30 consecutive days starting from 90 days post infection and measured at 120 to 170 days post infection in presence of benznidazole by electrocardiographic analysis. It is filed as functional, organism-based.

Series [9] concerns Trypanosoma cruzi. Description: Antitrypanosomal activity against Trypanosoma cruzi K98 bloodstream form infected in C3H/HeNk mouse assessed as effect on heart rate duration at 15 mg/kg/day, po administered via gavage for 30 consecutive days starting from 90 days post infection and measured at 120 to 170 days post infection in presence of benznidazole by electrocardiographic analysis. The class given is functional, organism-based.

Series [10] deals with Trypanosoma cruzi. Description: Antitrypanosomal activity against Trypanosoma cruzi K98 bloodstream form infected in C3H/HeNk mouse assessed as reduction in parasite burden in cardiac muscle at 15 mg/kg/day, po administered via gavage for 30 consecutive days starting from 90 days post infection and measured at 180 days post infection in presence of benznidazole by qRT-PCR analysis. It is filed as functional, organism-based.

The test system of series [11] is Trypanosoma cruzi. Description: Antitrypanosomal activity against Trypanosoma cruzi K98 bloodstream form infected in C3H/HeNk mouse assessed as effect on RR interval at 15 mg/kg/day, po administered via gavage for 30 consecutive days starting from 90 days post infection and measured at 120 to 170 days post infection in presence of benznidazole by electrocardiographic analysis. It is filed as functional, organism-based.

Series [12] relates to Trypanosoma cruzi. The experiment in a line: Antitrypanosomal activity against Trypanosoma cruzi K98 bloodstream form infected in C3H/HeNk mouse assessed as reduction in parasite burden in blood at 15 mg/kg/day, po administered via gavage for 30 consecutive days starting from 90 days post infection and measured at 180 days post infection in presence of benznidazole by qRT-PCR analysis. It is filed as functional, organism-based.

For series [13], the system named is Vero. Description: Cytotoxicity against African green monkey Vero cells at 0.5 to 20 uM after 72 hrs by propidium iodide staining based flow cytometric analysis. It is filed as cell-based. The settings on record: chlorocebus sabaeus. Background: A flow cytometer gives signals particle by particle.
Series [14] concerns Trypanosoma cruzi. Description: Antitrypanosomal activity against Trypanosoma cruzi K98 bloodstream form infected in C3H/HeNk mouse assessed as change in QRS morphology at 15 mg/kg/day, po administered via gavage for 30 consecutive days starting from 90 days post infection and measured at 120 days post infection in presence of benznidazole by electrocardiographic analysis (reference value: 25 %). It is filed as functional.

In the case of `COC(=O)C1=C(C)NC(C)=C(C(=O)O[C@@H]2CCCN(Cc3ccccc3)C2)[C@@H]1c1cccc([N+](=O)[O-])c1.Cl`, the result in series [1], in [6] and in [12] was Active. The Activity in series [2] was 1 - 3; in [3], 50%; in [7], “Non-Toxic”; in series [13] it was “Non-Toxic”; in series [14], 50%. In addition, the result in series [4], in [5], in series [8], in series [9], in series [10] and in series [11] was inactive.
